The assay relates to Human blood cell cancer cell line MV-4-11. As to the kind of experiment: Human blood cell cancer cell line MV-4-11 growth inhibitory test. It is filed as cell-based. The settings on record: MV4-11, 72 h, culture for 3 days; for inhibition at 1 µM: 1 μM test substance, read-out: inhibitory rate (%) at 1 μM. Here is the method: Human blood cell cancer cell line MV-4-11 (ATCC) was cultured in IMDM (Invitrogen) containing 10% bovine fetal serum in an incubator at 37° C., 5% CO2. MV-4-11 cells were treated with trypsin/EDTA and recovered. The cells were suspended in IMDM containing 10% bovine fetal serum, plated on a 96 well flat bottom plate at a cells density of 30,000 cells/50 μL per well. After culturing overnight, various concentrations of test substance were dissolved in IMDM containing 10% bovine fetal serum and added to each well by 50 μL. After culture for 3 days, a Cell counting kit-8 reagent (DOJINDO LABORATORIES) was added to each well by 10 μL, and reacted in an incubator at 37° C., 5% CO2 for 2-3 hr. After the reaction, the absorbance of each well at 450 nm was measured by a microtiter plate reader. The concentration of a test substance necessary for inhibiting the growth by 50% (IC50 value) was calculated using a cell proliferation rate with addition of the test substance at each concentration and according to the nonlinear regression analysis using GraphPad Prism [Sigmoidal dose response (variable slope)].

The structures appear in SMILES notation. pIC50: −log10 of the molar value. Bounds are passed on as bounds.

Usually pIC50 stands for the IC50 on a negative log10 scale, so that one unit is a factor of ten. Regarding `O=C(Nc1ccc(Oc2ccc3nc(NC(=O)C4CC4)cn3c2)c(F)c1)c1cccn(-c2ccc(F)cc2)c1=O` [Example 10, N-[4-({2-[(cyclopropylcarbonyl)amino]imidazo[1,2-a]pyridin-6-yl}oxy)-3-fluorophenyl]-1-(4-fluorophenyl)-2-oxo-1,2-dihydropyridine-3-carboxamide], the inhibition at 1 µM was ≥ 90% and the negative-log IC50 (pIC50) was ≥ 6.00.
`O=C(Nc1cn2cc(Oc3ccc(NC(=O)C4(C(=O)Nc5ccc(F)cc5)CC4)cc3F)ccc2n1)C1CC1` [Example 11, N-[4-({2-[(cyclopropylcarbonyl)amino]imidazo[1,2-a]pyridin-6-yl}oxy)-3-fluorophenyl]-N′-(4-fluorophenyl)cyclopropane-1,1-dicarboxamide]: the inhibition at 1 µM is ≥ 90% and the negative-log IC50 (pIC50) is ≥ 6.00.
The corresponding values for `O=C(Nc1cn2cc(Oc3ccc(NC(=O)C4(C(=O)Nc5ccccc5)CC4)cc3F)ccc2n1)C1CC1` [Example 14, N-[4-({2-[(cyclopropylcarbonyl)amino]imidazo[1,2-a]pyridin-6-yl}oxy)-3-fluorophenyl]-N′-phenylcyclopropane-1,1-dicarboxamide] are ≥ 90% and ≥ 6.00.
The corresponding values for `O=C(Nc1nc2ccc(Oc3ccc(NC(=O)C4(C(=O)Nc5ccccc5)CC4)cc3F)cc2s1)C1CC1` [Example 18, N-[4-({2-[(cyclopropylcarbonyl)amino]-1,3-benzothiazol-6-yl}oxy)-3-fluorophenyl]-N′-phenylcyclopropane-1,1-dicarboxamide] are ≥ 90% and ≥ 6.00.
On the same counts, the results for `Cc1ccc(C(=O)Nc2ccc(Oc3ccc4nc(NC(=O)C5CC5)cn4c3)cc2)c(=O)n1-c1ccc(F)cc1` [Example 28, N-[4-({2-[(cyclopropylcarbonyl)amino]imidazo[1,2-a]pyridin-6-yl}oxy)phenyl]-1-(4-fluorophenyl)-6-methyl-2-oxo-1,2-dihydropyridine-3-carboxamide] are ≥ 90% and ≥ 6.00.
As for `Cc1ccc(C(=O)Nc2ccc(Oc3ccc4nc(NC(=O)C5CC5)cn4c3)c(F)c2)[n+]([O-])c1-c1ccc(F)cc1` [Example 29, N-[4-({2-[(cyclopropylcarbonyl)amino]imidazo[1,2-a]pyridin-6-yl}oxy)-3-fluorophenyl]-6-(4-fluorophenyl)-5-methylpyridine-2-carboxamide 1-oxide], the inhibition at 1 µM is ≥ 90% and the pIC50 is ≥ 6.00.
The corresponding values for `Cc1ccc(C(=O)Nc2ccc(Oc3ccc4nc(NC(=O)C5CC5)cn4c3)c(F)c2)c(=O)n1-c1ccc(F)c(F)c1` [Example 45, N-[4-({2-[(cyclopropylcarbonyl)amino]imidazo[1,2-a]pyridin-6-yl}oxy)-3-fluorophenyl]-1-(3,4-difluorophenyl)-6-methyl-2-oxo-1,2-dihydropyridine-3-carboxamide] are ≥ 90% and ≥ 6.00.
On the same counts, the results for `Cc1c(C(=O)Nc2ccc(Oc3ccc4nc(NC(=O)C5CC5)cn4c3)c(F)c2)c(=O)n(-c2ccccc2)n1C` [Example 46, N-[4-({2-[(cyclopropylcarbonyl)amino]imidazo[1,2-a]pyridin-6-yl}oxy)-3-fluorophenyl]-1,5-dimethyl-3-oxo-2-phenyl-2,3-dihydro-1H-pyrazole-4-carboxamide] are ≥ 90% and ≥ 6.00.
As for `O=C(Nc1cn2cc(Oc3ccc(NC(=O)N4CCN(c5ccc(F)cc5)C4=O)cc3F)ccc2n1)C1CC1` [Example 53, N-[4-({2-[(cyclopropylcarbonyl)amino]imidazo[1,2-a]pyridin-6-yl}oxy)-3-sfluorophenyl]-3-(4-fluorophenyl)-2-oxoimidazolidine-1-carboxamide], the inhibition at 1 µM was ≥ 90% and the negative-log IC50 (pIC50) was ≥ 6.00.
The corresponding values for `Cc1ccc(C(=O)Nc2ccc(Oc3ccc4nc(NC(=O)C5CC5)cn4c3)c(Cl)c2)c(=O)n1-c1ccc(F)cc1` [Example 57, N-[3-chloro-4-({2-[(cyclopropylcarbonyl)amino]imidazo[1,2-a]pyridin-6-yl}oxy)phenyl]-1-(4-fluorophenyl)-6-methyl-2-oxo-1,2-dihydropyridine-3-carboxamide] are ≥ 90% and ≥ 6.00.
The corresponding values for `Cc1ccc(C(=O)Nc2ccc(Oc3ccc4nc(NC(=O)C5CC5)cn4c3)cn2)c(=O)n1-c1ccc(F)cc1` [Example 60, N-[5-({2-[(cyclopropylcarbonyl)amino]imidazo[1,2-a]pyridin-6-yl}oxy)pyridin-2-yl]-1-(4-fluorophenyl)-6-methyl-2-oxo-1,2-dihydropyridine-3-carboxamide] are ≥ 90% and ≥ 6.00.
On the same counts, the results for `Cc1ccc(C(=O)Nc2ccc(Oc3ccc4nc(NC(=O)C5CC5)cn4c3)cn2)[n+]([O-])c1-c1ccc(F)cc1` [Example 61, N-[5-({2-[(cyclopropylcarbonyl)amino]imidazo[1,2-a]pyridin-6-yl}oxy)pyridin-2-yl]-6-(4-fluorophenyl)-5-methylpyridine-2-carboxamide 1-oxide] are ≥ 90% and ≥ 6.00.
As for `Cc1cc(C(=O)Nc2ccc(Oc3ccc4nc(NC(=O)C5CC5)cn4c3)c(F)c2)c(=O)n(-c2ccc(F)cc2)c1` [Example 66, N-[4-({2-[(cyclopropylcarbonyl)amino]imidazo[1,2-a]pyridin-6-yl}oxy)-3-fluorophenyl]-1-(4-fluorophenyl)-5-methyl-2-oxo-1,2-dihydropyridine-3-carboxamide], the inhibition at 1 µM is ≥ 90% and the pIC50 was ≥ 6.00.
On the same counts, the results for `Cc1cc(C(=O)Nc2ccc(Oc3ccc4nc(NC(=O)C5CC5)cn4c3)c(F)c2)c(=O)n(-c2ccc(F)cc2)c1C` [Example 70, N-[4-({2-[(cyclopropylcarbonyl)amino]imidazo[1,2-a]pyridin-6-yl}oxy)-3-fluorophenyl]-1-(4-fluorophenyl)-5,6-dimethyl-2-oxo-1,2-dihydropyridine-3-carboxamide] are ≥ 90% and ≥ 6.00.
On the same counts, the results for `Cc1ccc(C(=O)Nc2ccc(Oc3ccc4nc(NC(=O)C5CC5)cn4c3)cc2)[n+]([O-])c1-c1ccc(F)cc1` [Example 72, N-[4-({2-[(cyclopropylcarbonyl)amino]imidazo[1,2-a]pyridin-6-yl}oxy)phenyl]-6-(4-fluorophenyl)-5-methylpyridine-2-carboxamide 1-oxide] are ≥ 90% and ≥ 6.00.
On to `Cc1ccc(C(=O)Nc2ccc(Oc3ccc4nc(NC(=O)C5CC5)cn4c3)c(F)c2)c(=O)n1-c1cccc(F)c1` [Example 75, N-[4-({2-[(cyclopropylcarbonyl)amino]imidazo[1,2-a]pyridin-6-yl}oxy)-3-fluorophenyl]-1-(3-fluorophenyl)-6-methyl-2-oxo-1,2-dihydropyridine-3-carboxamide], for which the inhibition at 1 µM was ≥ 90% and the pIC50 was ≥ 6.00.
Take `Cc1ccc(C(=O)Nc2ccc(Oc3ccn4nc(NC(=O)C5CC5)nc4c3)c(F)c2)c(=O)n1-c1ccc(F)cc1` [Example 76, N-[4-({2-[(cyclopropylcarbonyl)amino][1,2,4]triazolo[1,5-a]pyridine-7-yl}oxy)-3-fluorophenyl]-1-(4-fluorophenyl)-6-methyl-2-oxo-1,2-dihydropyridine-3-carboxamide]: the inhibition at 1 µM was ≥ 90% and the negative logarithm of the IC50 (pIC50) was ≥ 6.00.
The corresponding values for `Cc1c(C(=O)Nc2ccc(Oc3ccc4nc(NC(=O)C5CC5)cn4c3)c(F)c2)c(=O)n(-c2ccc(F)cc2)n1C` [Example 77, N-[4-({2-[(cyclopropylcarbonyl)amino]imidazo[1,2-a]pyridin-6-yl}oxy)-3-fluorophenyl]-2-(4-fluorophenyl)-1,5-dimethyl-3-oxo-2,3-dihydro-1H-pyrazole-4-carboxamide] are ≥ 90% and ≥ 6.00.
On the same counts, the results for `CC1CCN(C(=O)Nc2ccc(Oc3ccc4nc(NC(=O)C5CC5)cn4c3)c(F)c2)C(=O)N1c1ccc(F)cc1` (stereo not drawn) [Example 80, N-[4-({2-[(cyclopropylcarbonyl)amino]imidazo[1,2-a]pyridin-6-yl}oxy)-3-fluorophenyl]-3-(4-fluorophenyl)-4-methyl-2-oxotetrahydropyrimidine-1(2H)-carboxamide] are ≥ 90% and ≥ 6.00.
The corresponding values for `CC1=C(c2ccc(F)cc2)C(=O)N(C(=O)Nc2ccc(Oc3ccc4nc(NC(=O)C5CC5)cn4c3)c(F)c2)CC1` [Example 81, N-[4-({2-[(cyclopropylcarbonyl)amino]imidazo[1,2-a]pyridin-6-yl}oxy)-3-fluorophenyl]-5-(4-fluorophenyl)-4-methyl-6-oxo-3,6-dihydropyridine-1(2H)-carboxamide] are ≥ 90% and ≥ 6.00.
For the compound `Cc1cc(C)n(-c2ccc(F)cc2)c(=O)c1C(=O)Nc1ccc(Oc2ccc3nc(NC(=O)C4CC4)cn3c2)c(F)c1` [Example 82, N-[4-({2-[(cyclopropylcarbonyl)amino]imidazo[1,2-a]pyridin-6-yl}oxy)-3-fluorophenyl]-1-(4-fluorophenyl)-4,6-dimethyl-2-oxo-1,2-dihydropyridine-3-carboxamide], the inhibition at 1 µM is ≥ 90% and the pIC50 was ≥ 6.00.

(Values after US8445509B2, “Fused heterocyclic derivatives and use thereof” (Takeda Pharmaceutical Company Limited, priority 2008, dated 2013).)
